Columns and labels:
human plasma proteins = assay: 5-MeO-DMT binding to human plasma proteins, high throughput dialysis; type: in vitro ADME; settings: 4-hour dialysis
Protocol: Following evaluation of the equilibration data, plasma protein binding was investigated at nominal concentrations of 0.1, 1 and 10 μM using a 4-hour dialysis time. […]

[1] = 5-MeO-DMT, 5-MIAA and bufotenine in urine, serum and breastmilk of a lactating PPD patient, LC-MS/MS
Protocol: The second patients was lactating, and, per the clinical trial protocol, breastmilk samples were collected pre-dosing and at multiple timepoints after administration of the last dose. […] Similar analyses were carried out on patient serum and urine samples.

[2] = 1.0 hrs after last dose (6 mg then 12 mg 5-MeO-DMT)

SMILES: COc1ccc2[nH]cc(CCN(C)C)c2c1 [5-MeO-DMT]
- Free Fraction in human plasma (human plasma proteins; 0.1 μM): 78.7%
- Free Fraction in human plasma (human plasma proteins; 1 μM): 77.3%
- Free Fraction in human plasma (human plasma proteins; 10 μM): 87.0%
- Breastmilk concentration [1, 2]: 2167.0 pg/mL
- Serum concentration [1, 2]: 0.1329 ng/mL
- Breastmilk concentration ([1]; 2.5 hrs after last dose): 560.6 pg/mL
- Serum concentration ([1]; 2.5 hrs after last dose): BLQ (BLQ: Below limit of quantification. The lower limit of quantification is 25 pg/ml for both 5-MeO-DMT and 5-MIAA in both serum and breastmilk; it is 25 pg/ml in urine for 5-MeO-DMT and 250 pg/ml for 5-MIAA in urine.)
- Urine concentration ([1]; 2.5 hrs after last dose): 566.7 pg/mL
- Breastmilk concentration ([1]; 8.5 hrs after last dose): 42.1 pg/mL
- Urine concentration ([1]; 8.5 hrs after last dose): BLQ (BLQ: Below limit of quantification. The lower limit of quantification is 25 pg/ml for both 5-MeO-DMT and 5-MIAA in both serum and breastmilk; it is 25 pg/ml in urine for 5-MeO-DMT and 250 pg/ml for 5-MIAA in urine.)
- Breastmilk concentration ([1]; 24.0 hrs after last dose): did not detect any 5-MeO-DMT and BLG
- Serum concentration ([1]; 24.0 hrs after last dose): BLQ (BLQ: Below limit of quantification. The lower limit of quantification is 25 pg/ml for both 5-MeO-DMT and 5-MIAA in both serum and breastmilk; it is 25 pg/ml in urine for 5-MeO-DMT and 250 pg/ml for 5-MIAA in urine.)
- Urine concentration ([1]; 24.0 hrs after last dose): BLQ (BLQ: Below limit of quantification. The lower limit of quantification is 25 pg/ml for both 5-MeO-DMT and 5-MIAA in both serum and breastmilk; it is 25 pg/ml in urine for 5-MeO-DMT and 250 pg/ml for 5-MIAA in urine.)
- Breastmilk concentration ([1]; 120.0 hrs after last dose): BLQ (BLQ: Below limit of quantification. The lower limit of quantification is 25 pg/ml for both 5-MeO-DMT and 5-MIAA in both serum and breastmilk; it is 25 pg/ml in urine for 5-MeO-DMT and 250 pg/ml for 5-MIAA in urine.)
- Serum concentration ([1]; 120.0 hrs after last dose): BLQ (BLQ: Below limit of quantification. The lower limit of quantification is 25 pg/ml for both 5-MeO-DMT and 5-MIAA in both serum and breastmilk; it is 25 pg/ml in urine for 5-MeO-DMT and 250 pg/ml for 5-MIAA in urine.)
- Urine concentration ([1]; 120.0 hrs after last dose): BLQ (BLQ: Below limit of quantification. The lower limit of quantification is 25 pg/ml for both 5-MeO-DMT and 5-MIAA in both serum and breastmilk; it is 25 pg/ml in urine for 5-MeO-DMT and 250 pg/ml for 5-MIAA in urine.)
- Breastmilk concentration ([1]; −24.0 hrs (pre-dosing)): BLQ (BLQ: Below limit of quantification. The lower limit of quantification is 25 pg/ml for both 5-MeO-DMT and 5-MIAA in both serum and breastmilk; it is 25 pg/ml in urine for 5-MeO-DMT and 250 pg/ml for 5-MIAA in urine.)
- Serum concentration ([1]; −24.0 hrs (pre-dosing)): BLQ (BLQ: Below limit of quantification. The lower limit of quantification is 25 pg/ml for both 5-MeO-DMT and 5-MIAA in both serum and breastmilk; it is 25 pg/ml in urine for 5-MeO-DMT and 250 pg/ml for 5-MIAA in urine.)
- Urine concentration ([1]; −24.0 hrs (pre-dosing)): BLQ (BLQ: Below limit of quantification. The lower limit of quantification is 25 pg/ml for both 5-MeO-DMT and 5-MIAA in both serum and breastmilk; it is 25 pg/ml in urine for 5-MeO-DMT and 250 pg/ml for 5-MIAA in urine.)

— patent US20240108602A1, “TREATMENT OF MENTAL DISORDERS” (GH Research Ireland Limited, priority 2022, published 2024)
